In patent US9163030B2 (priority 2012, dated 2015):
Where two headings read alike, the source gives them in different places.

Experiments:
[1] = target: MOR; settings: brain tissue membranes, included for comparison; read-out: Ki ± SEM MOR; cited from earlier work
[2] = target: DOR; settings: brain tissue membranes, included for comparison; read-out: Ki ± SEM DOR; cited from earlier work
[3] = target: KOR; settings: brain tissue membranes, included for comparison; read-out: Ki ± SEM KOR; cited from earlier work
[4] = test system: mice; assay: 55° C. warm-water tail-withdrawal test; assay type: in vivo, mouse; settings: for Antinociceptive A50 Values / antinociceptive effect: icv; for Antinociceptive A50 Values: calculated at time of peak effect; for antinociceptive effect: in words; for effect of naloxone pretreatment on antinociceptive effect: naloxone 10 mg/kg ip, -10 min, icv test compound
[5] = target: T1, CHO cells co-expressing MOR and DOR (dimer cells) (UniProt P32300+P35372); assay: cell-based; assay type: cell-based, human μ / mouse δ; parameters: Emax: dose or concentration left out as unconfirmed; settings: for Emax: CHO, read-out: decrease of the Emax value for DAMGO-mediated inhibition of forskolin-stimulated cAMP
T1 construct: cMyc (N); expressed in transfected cells; host or cells: CHO (cMyc-mδ-HμCHO cells)

[6] = target: T2, DOR (Mus musculus, UniProt P32300); assay: [35S]GTP-γ-S binding assay, NG108-15 cells; assay type: biochemical; settings: for functional activity profile at DOR: in words
T2 construct: endogenous in cells; host or cells: NG108-15 neuroblastoma x glioma cells

[7] = target: T3, MOR (Homo sapiens, UniProt P35372); assay: [35S]GTP-γ-S binding assay, hMOR-CHO cells; assay type: biochemical; settings: for Emax: normalized to stimulation by DAMGO, read-out: agonist activity MOR Emax
T3 construct: expressed in transfected cells; host or cells: CHO (hMOR-CHO)

[8] = target: T4, KOR (Homo sapiens, UniProt P41145); assay: [35S]GTP-γ-S binding assay, hKOR-CHO cells; assay type: biochemical
T4 construct: expressed in transfected cells; host or cells: CHO (hKOR-CHO)

[9] = target: T1, CHO cells co-expressing MOR and DOR (dimer cells); assay type: cell-based, human μ / mouse δ
[10] = target: T4, KOR; assay: biochemical; assay type: binding
[11] = target: T3, MOR; assay: Opioid binding assay, displacement of [3H]DAMGO, hMOR-CHO cell membranes
[12] = test system: mice; assay: Tolerance regimen, repeated icv injection, warm-water tail-withdrawal; settings: repeated injection paradigm
[13] = target: T5, DOR (Homo sapiens, UniProt P41143); assay: Opioid binding assay, displacement of [3H]DADLE, hDOR-CHO cell membranes
T5 construct: expressed in transfected cells; host or cells: CHO (hDOR-CHO)

[14] = stimulation of [35S]GTP-γ-S binding, no stim = no stimulation

T4 sequence (P41145 whole entry): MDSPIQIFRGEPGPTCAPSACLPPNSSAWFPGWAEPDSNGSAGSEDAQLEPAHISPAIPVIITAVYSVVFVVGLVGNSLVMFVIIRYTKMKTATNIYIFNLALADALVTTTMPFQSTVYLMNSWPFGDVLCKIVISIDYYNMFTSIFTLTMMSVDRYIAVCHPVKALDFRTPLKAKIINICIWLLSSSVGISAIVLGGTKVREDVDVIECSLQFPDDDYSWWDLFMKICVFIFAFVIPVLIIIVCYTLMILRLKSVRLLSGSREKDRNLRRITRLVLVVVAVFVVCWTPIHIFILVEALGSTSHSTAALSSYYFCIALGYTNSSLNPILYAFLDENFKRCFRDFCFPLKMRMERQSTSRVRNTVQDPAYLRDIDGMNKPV
T2 sequence (P32300 whole entry): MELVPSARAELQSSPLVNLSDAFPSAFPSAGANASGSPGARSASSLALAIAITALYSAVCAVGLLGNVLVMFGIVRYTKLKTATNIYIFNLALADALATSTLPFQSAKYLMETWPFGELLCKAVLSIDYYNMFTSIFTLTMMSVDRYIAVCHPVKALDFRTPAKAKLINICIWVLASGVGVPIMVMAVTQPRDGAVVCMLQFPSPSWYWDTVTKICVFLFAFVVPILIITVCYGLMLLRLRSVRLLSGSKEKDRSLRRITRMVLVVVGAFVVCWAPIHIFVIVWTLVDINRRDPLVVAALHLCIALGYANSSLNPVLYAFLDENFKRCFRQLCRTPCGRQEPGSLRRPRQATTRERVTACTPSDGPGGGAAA
T1 sequence (P35372 whole entry): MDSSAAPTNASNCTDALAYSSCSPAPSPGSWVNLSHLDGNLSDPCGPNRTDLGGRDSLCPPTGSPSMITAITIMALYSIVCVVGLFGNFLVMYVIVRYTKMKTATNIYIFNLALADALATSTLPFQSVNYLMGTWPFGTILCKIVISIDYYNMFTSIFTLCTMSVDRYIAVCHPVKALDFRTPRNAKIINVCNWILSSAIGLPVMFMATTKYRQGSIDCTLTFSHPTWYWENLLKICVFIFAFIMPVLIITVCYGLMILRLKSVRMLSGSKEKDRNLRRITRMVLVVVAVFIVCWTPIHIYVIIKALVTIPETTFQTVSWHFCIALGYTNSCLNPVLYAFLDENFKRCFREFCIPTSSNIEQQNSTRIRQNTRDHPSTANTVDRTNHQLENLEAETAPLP
T1 sequence (P32300 whole entry): as the sequence (P32300 whole entry) above
T3 sequence (P35372 whole entry): as the sequence (P35372 whole entry) above
T5 sequence (P41143 whole entry): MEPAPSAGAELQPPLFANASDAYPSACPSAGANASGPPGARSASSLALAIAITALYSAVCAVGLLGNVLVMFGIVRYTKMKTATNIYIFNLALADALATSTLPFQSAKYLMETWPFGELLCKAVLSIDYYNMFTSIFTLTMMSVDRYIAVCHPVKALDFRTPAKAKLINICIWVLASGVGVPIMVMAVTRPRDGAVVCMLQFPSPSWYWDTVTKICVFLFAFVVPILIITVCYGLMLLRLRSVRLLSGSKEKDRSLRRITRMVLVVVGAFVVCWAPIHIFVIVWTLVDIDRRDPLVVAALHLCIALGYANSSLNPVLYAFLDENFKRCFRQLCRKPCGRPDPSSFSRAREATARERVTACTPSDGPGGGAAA

CN1CCC23c4c5ccc(O)c4OC2c2ncc(-c4ccc(Cl)cc4)cc2CC3(O)C1C5 (stereo not shown) [Compound 9]
Ki [1]: 230 ± 10 nM
Ki [2]: 3.9 ± 0.2 nM
Ki [3]: 468 ± 17 nM

Oc1ccc2c3c1OC1c4ncc(-c5ccc(Cl)cc5)cc4CC4(OCCCc5ccccc5)C(C2)N(CC2CC2)CCC314 (stereo not drawn) [Compound 17d, 5′-(4-Chlorophenyl)-17-(cyclopropylmethyl)-6,7-didehydro-4,5α-epoxy-3-hydroxy-14-(3-phenylpropoxy)pyrido[2′,3′:6,7]morphinan]
Antinociceptive A50 Values [4]: 0.35 nmol
antinociceptive effect [4]: full antinociceptive effects
effect of naloxone pretreatment on antinociceptive effect [4]: blocked by naloxone pretreatment
increase in the EC50 value for DAMGO-mediated inhibition of forskolin-stimulated cAMP accumulation (tolerance) [5]: did not produce either tolerance
Emax [5]: 40%
functional activity profile at DOR [6]: antagonists at DOR
antagonist activity DOR Ke ([6]; shift in EC50 of standard agonist): 0.091 nM
agonist activity DOR EC50 [6, 14]: no stim
functional activity profile at MOR ([7]; in words): agonist profile at MOR
Emax [7]: 72%
functional activity profile at KOR ([8]; in words): devoid of agonist activity at KOR
cAMP superactivation (forskolin-stimulated cAMP accumulation after chronic treatment) ([9]; 20 h treatment, washed, forskolin/IBMX 100 μM/500 μM): did not
naloxone-induced cAMP overshoot ([9]; 20 h treatment, washed, forskolin/IBMX plus 10 μM naloxone): did not

CN1CCC23c4c5ccc(O)c4OC2c2ncc(-c4ccc(Cl)cc4)cc2CC3(OCCCc2ccccc2)C1C5 (stereo not drawn) [Compound 17h, 5′-(4-Chlorophenyl)-6,7-didehydro-4,5α-epoxy-3-hydroxy-17-methyl-14-(3-phenylpropoxy)pyrido[2′,3′:6,7]morphinan]
selectivity ratio KOR/DOR [10]: 1.5
Ki ([10]; read-out: Ki ± SEM KOR): 1.53 ± 0.1 nM
Ki [11]: 0.54 ± 0.04 nM
selectivity ratio MOR/DOR ([11]; ratio of Ki values, CHO membranes): 0.52
Antinociceptive A50 Values [4]: 0.23 nmol
antinociceptive effect [4]: full antinociceptive effects
effect of naloxone pretreatment on antinociceptive effect [4]: blocked by naloxone pretreatment
toxicity on repeated administration [12]: undue toxicity
Ki [13]: 1.04 ± 0.08 nM
increase in the EC50 value for DAMGO-mediated inhibition of forskolin-stimulated cAMP accumulation (tolerance) [5]: ~7 fold
Emax [5]: 20%
functional activity profile at DOR [6]: weak to potent partial agonist activity at DOR
Emax ([6]; read-out: agonist activity DOR Emax): 85%
EC50 [7]: 2.15 nM
Emax [7]: 125 ± 2%
agonist activity KOR EC50 [8, 14]: no stim
cAMP superactivation (forskolin-stimulated cAMP accumulation after chronic treatment) [9]: effects similar to that of morphine
naloxone-induced cAMP overshoot [9]: effects similar to that of morphine
